Data as given in BindingDB's records for doi:10.1016/0960-894X(96)00174-6 (n/a, 1996).

target: T1, 5-hydroxytryptamine receptor 2C (Homo sapiens, UniProt P28335); assay: ChEBML_3050
T1 sequence (P28335 whole entry): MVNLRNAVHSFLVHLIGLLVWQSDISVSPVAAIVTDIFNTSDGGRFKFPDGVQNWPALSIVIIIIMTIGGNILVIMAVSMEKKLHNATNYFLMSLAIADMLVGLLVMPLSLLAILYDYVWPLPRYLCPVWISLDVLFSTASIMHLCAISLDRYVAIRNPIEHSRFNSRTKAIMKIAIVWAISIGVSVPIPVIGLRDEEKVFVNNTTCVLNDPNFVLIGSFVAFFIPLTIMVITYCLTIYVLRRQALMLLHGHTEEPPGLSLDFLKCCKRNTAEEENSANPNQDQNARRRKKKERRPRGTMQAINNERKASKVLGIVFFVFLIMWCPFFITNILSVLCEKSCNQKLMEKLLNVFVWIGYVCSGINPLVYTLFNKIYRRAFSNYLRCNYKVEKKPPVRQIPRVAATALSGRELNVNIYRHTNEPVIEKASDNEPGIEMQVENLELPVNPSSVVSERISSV
Text: Binding affinity towards 5-hydroxytryptamine 2C receptor by displacement of [3H]N-methyl-mesulergine

IC50	SMILES
3.16 µM	CCCN(CCCCN1C(=O)CC2(CCCC2)CC1=O)CC1COc2cccc(OC)c2C1 (stereo not drawn)
1.23 µM	O=C1CC2(CCCC2)CC(=O)N1CCCCNCC1COc2ccccc2C1 (stereo not drawn)
0.169 µM	COc1cccc2c1CC(CNCCCCN1C(=O)CC3(CCCC3)CC1=O)CO2 (stereo not drawn)
30.2 µM	CCCN(CCC)CC1(N(CCC)CCC)COc2cccc(OC)c2C1 (stereo not drawn)
38.9 µM	CCCN1CCN(Cc2ccccc2)CC12COc1cccc(OC)c1C2 (stereo not drawn)
468 µM	CCCN1CCN(CCC)C2(COc3cccc(OC)c3C2)C1 (stereo not drawn)
30.9 µM	CCCN1CCN(CCCCN2C(=O)CC3(CCCC3)CC2=O)CC12COc1cccc(OC)c1C2 (stereo not drawn)
10.5 µM	COc1cccc2c1CC1(CCCN1CCCCN1C(=O)CC3(CCCC3)CC1=O)CO2 (racemic) [(+/-) 8-{4-[5-methoxyspiro[3,4-dihydro-2H-chromene-3,2'-(tetrahydro-1'H-pyrrole)]-1-yl]butyl}-8-azaspiro[4.5]decane-7,9-dione]
